According to patent US12077503B2, “Substituted cyclic amides and their use as herbicides” (FMC CORPORATION, priority 2015, dated 2024):

Key:
Format in all cases: in vivo
corn (Zea mays) = assay: Test A postemergence; conditions: Zea mays, post-emergence, 240 h; for plant injury at 125 g/ha: 125 g ai/ha, postemergence, visual injury vs untreated controls after approx. 10 d, 0 = no effect, 100 = complete control, read-out: Corn plant response rating (0 to 100 scale); for Corn plant response rating (crop injury, 0 = no effect, 100 = complete kill) at 31 g/ha: Postemergence, 31 g ai/ha, visual injury after approx. 10 d, 0 to 100 scale, 100 complete control
Method in brief: (§1)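 In a loam soil and sand blend, planted seeds got a preemergence directed soil spray, and young plants at the one- to two-leaf stage, 2–10 cm high, got a postemergence application; ~10 d greenhouse hold; injury rated visually, 0 = none, 100 = complete control.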

[1] = tested on: barnyardgrass (Echinochloa crus-galli); assay: Test A postemergence; conditions: Echinochloa crus-galli, post-emergence, 240 h; for pest or weed control at 125 g/ha: 125 g ai/ha, postemergence, visual injury vs untreated controls after approx. 10 d, 0 = no effect, 100 = complete control, read-out: Barnyardgrass plant response rating (0 to 100 scale); for pest or weed control at 31 g/ha: Postemergence, 31 g ai/ha, visual injury after approx. 10 d, 0 to 100 scale, 0 no effect, 100 complete control, read-out: Plant response rating, Barnyardgrass
Method in brief: as §1

[2] = tested on: giant foxtail (Setaria faberii); assay: Test A postemergence; conditions: Setaria faberi, post-emergence, 240 h; for pest or weed control at 125 g/ha: 125 g ai/ha, postemergence, visual injury vs untreated controls after approx. 10 d, 0 = no effect, 100 = complete control, read-out: Foxtail, Giant plant response rating (0 to 100 scale); for pest or weed control at 31 g/ha: Postemergence, 31 g ai/ha, visual injury after approx. 10 d, 0 to 100 scale, 0 no effect, 100 complete control, read-out: Plant response rating, Foxtail, Giant
Method in brief: as §1

[3] = tested on: pigweed (Amaranthus retroflexus); assay: Test A postemergence; conditions: Amaranthus retroflexus, post-emergence, 240 h, 125 g ai/ha, postemergence, visual injury vs untreated controls after approx. 10 d; 0 = no effect, 100 = complete control; read-out: Pigweed plant response rating (0 to 100 scale)
Method in brief: as §1

Kochia (Kochia scoparia) [4] = assay: Test A postemergence; conditions: Bassia scoparia, post-emergence, 240 h; for pest or weed control at 125 g/ha: 125 g ai/ha, postemergence, visual injury vs untreated controls after approx. 10 d, 0 = no effect, 100 = complete control, read-out: Kochia plant response rating (0 to 100 scale); for pest or weed control at 31 g/ha: Postemergence, 31 g ai/ha, visual injury after approx. 10 d, 0 to 100 scale, 0 no effect, 100 complete control, read-out: Plant response rating, Kochia
Method in brief: as §1

[5] = tested on: wheat (Triticum aestivum); assay: Test A postemergence; conditions: Triticum aestivum, post-emergence, 240 h, 125 g ai/ha, postemergence, visual injury vs untreated controls after approx. 10 d; 0 = no effect, 100 = complete control; read-out: Wheat plant response rating (0 to 100 scale)
Method in brief: as §1

[6] = tested on: ragweed (common ragweed, Ambrosia elatior); assay: Test A postemergence; conditions: Ambrosia artemisiifolia, post-emergence, 240 h, 125 g ai/ha, postemergence, visual injury vs untreated controls after approx. 10 d; 0 = no effect, 100 = complete control; read-out: Ragweed plant response rating (0 to 100 scale)
Method in brief: as §1

[7] = tested on: blackgrass (Alopecurus myosuroides); assay: Test A postemergence; conditions: Alopecurus myosuroides, post-emergence, 240 h; for pest or weed control at 125 g/ha: 125 g ai/ha, postemergence, visual injury vs untreated controls after approx. 10 d, 0 = no effect, 100 = complete control, read-out: Blackgrass plant response rating (0 to 100 scale); for pest or weed control at 31 g/ha: Postemergence, 31 g ai/ha, visual injury after approx. 10 d, 0 to 100 scale, 0 no effect, 100 complete control, read-out: Plant response rating, Blackgrass
Method in brief: as §1

[8] = tested on: Galium (catchweed bedstraw, Galium aparine); assay: Test A postemergence; conditions: Galium, post-emergence, 240 h; for pest or weed control at 125 g/ha: 125 g ai/ha, postemergence, visual injury vs untreated controls after approx. 10 d, 0 = no effect, 100 = complete control, read-out: Galium plant response rating (0 to 100 scale); for pest or weed control at 31 g/ha: Postemergence, 31 g ai/ha, visual injury after approx. 10 d, 0 to 100 scale, 0 no effect, 100 complete control, read-out: Plant response rating, Galium
Method in brief: as §1

[9] = tested on: ryegrass, Italian (Italian ryegrass, Lolium multiflorum); assay: Test A postemergence; conditions: Lolium multiflorum, post-emergence, 240 h, 125 g ai/ha, postemergence, visual injury vs untreated controls after approx. 10 d; 0 = no effect, 100 = complete control; read-out: Ryegrass, Italian plant response rating (0 to 100 scale)
Method in brief: as §1

[10] = tested on: barnyardgrass (Echinochloa crus-galli); assay: Test A preemergence; conditions: Echinochloa crus-galli, pre-emergence, 240 h, 0 to 100 scale where 0 is no effect and 100 is complete control, read-out: Barnyardgrass plant response rating; for pest or weed control at 31 g/ha: 31 g ai/ha, Preemergence; for pest or weed control at 125 g/ha: 125 g ai/ha, preemergence
Method in brief: as §1

[11] = tested on: giant foxtail (Setaria faberii); assay: Test A preemergence; conditions: Setaria faberi, pre-emergence, 240 h, 0 to 100 scale where 0 is no effect and 100 is complete control, read-out: Foxtail, Giant plant response rating; for pest or weed control at 31 g/ha: 31 g ai/ha, Preemergence; for pest or weed control at 125 g/ha: 125 g ai/ha, preemergence
Method in brief: as §1

[12] = tested on: pigweed (Amaranthus retroflexus); assay: Test A preemergence; conditions: Amaranthus retroflexus, pre-emergence, 240 h, 0 to 100 scale where 0 is no effect and 100 is complete control, read-out: Pigweed plant response rating; for pest or weed control at 31 g/ha: 31 g ai/ha, Preemergence; for pest or weed control at 125 g/ha: 125 g ai/ha, preemergence
Kochia (Kochia scoparia) [13] = assay: Test A preemergence; conditions: Bassia scoparia, pre-emergence, 240 h, 0 to 100 scale where 0 is no effect and 100 is complete control, read-out: Kochia plant response rating; for pest or weed control at 31 g/ha: 31 g ai/ha, Preemergence; for pest or weed control at 125 g/ha: 125 g ai/ha, preemergence
Method in brief: as §1

[14] = tested on: ragweed (common ragweed, Ambrosia elatior); assay: Test A preemergence; conditions: Ambrosia artemisiifolia, pre-emergence, 240 h, 0 to 100 scale where 0 is no effect and 100 is complete control, read-out: Ragweed plant response rating; for pest or weed control at 31 g/ha: 31 g ai/ha, Preemergence; for pest or weed control at 125 g/ha: 125 g ai/ha, preemergence
Method in brief: as §1

[15] = tested on: ryegrass, Italian (Italian ryegrass, Lolium multiflorum); assay: Test A preemergence; conditions: Lolium multiflorum, pre-emergence, 240 h, 0 to 100 scale where 0 is no effect and 100 is complete control, read-out: Ryegrass, Italian plant response rating; for pest or weed control at 31 g/ha: 31 g ai/ha, Preemergence; for pest or weed control at 125 g/ha: 125 g ai/ha, preemergence
Method in brief: as §1

[16] = tested on: sedge, umbrella (small-flower umbrella sedge, Cyperus difformis); assay: Test B flooded paddy test; conditions: Cyperus difformis, 250 g ai/ha, Flood; 0 to 100 scale where 0 is no effect and 100 is complete control; read-out: Sedge, Umbrella plant response rating
Method in brief: (§2)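 Greenhouse paddy pots with 2-leaf stage plants received compound by direct addition to floodwater 3 cm deep, kept at that level. Scored visually at 13–15 d versus controls (0 no effect; 100 complete control).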

[17] = tested on: barnyardgrass (Echinochloa crus-galli); assay: Test B flooded paddy test; conditions: Echinochloa crus-galli, 250 g ai/ha, Flood; 0 to 100 scale where 0 is no effect and 100 is complete control; read-out: Barnyardgrass plant response rating
Method in brief: as §2

[18] = tested on: ducksalad (Heteranthera limosa); assay: Test B flooded paddy test; conditions: Heteranthera limosa, 250 g ai/ha, Flood; 0 to 100 scale where 0 is no effect and 100 is complete control; read-out: Ducksalad plant response rating
Method in brief: as §2

rice (Oryra sativa) = assay: Test B flooded paddy test; conditions: Oryza sativa, 250 g ai/ha, Flood; 0 to 100 scale where 0 is no effect and 100 is complete control; read-out: Rice plant response rating
Method in brief: as §2

[19] = visual injury rating, approximately 10 d

| SMILES | plant injury at 125 g/ha (corn (Zea mays)) [%] | Corn plant response rating (crop injury, 0 = no effect, 100 = complete kill) at 31 g/ha (corn (Zea mays)) [%] | pest or weed control at 125 g/ha [1] [%] | pest or weed control at 31 g/ha [1] [%] | pest or weed control at 125 g/ha [2] [%] | pest or weed control at 31 g/ha [2] [%] | pest or weed control at 125 g/ha [3] [%] | pest or weed control at 125 g/ha (Kochia (Kochia scoparia) [4]) [%] | pest or weed control at 31 g/ha (Kochia (Kochia scoparia) [4]) [%] | plant injury at 125 g/ha [5] [%] | pest or weed control at 125 g/ha [6] [%] | pest or weed control at 125 g/ha [7] [%] | pest or weed control at 31 g/ha [7] [%] | pest or weed control at 125 g/ha [8] [%] | pest or weed control at 31 g/ha [8] [%] | pest or weed control at 125 g/ha [9] [%] | pest or weed control at 31 g/ha [10] [%] | pest or weed control at 31 g/ha [11] [%] | pest or weed control at 31 g/ha [12] [%] | pest or weed control at 31 g/ha (Kochia (Kochia scoparia) [13]) [%] | further results |
| --- | --- | --- | --- | --- | --- | --- | --- | --- | --- | --- | --- | --- | --- | --- | --- | --- | --- | --- | --- | --- | --- |
| CN1C[C@H](c2ccc(C(F)F)cc2)[C@@H](C(=O)Nc2ccccc2S(C)(=O)=O)C1=O [Compound 1175] | 30 | 0 | 90 | 50 | 80 | 50 | 20 | 0 | 0 | 40 | 30 | 50 | 0 | 40 | 20 | 50 | 50 | 70 | 0 | 20 | pest or weed control at 125 g/ha ([10]; approx. 10 d): 90%; pest or weed control at 125 g/ha ([11]; approx. 10 d): 90%; pest or weed control at 125 g/ha ([12]; approx. 10 d): 40%; pest or weed control at 125 g/ha (Kochia (Kochia scoparia) [13]; approx. 10 d): 50%; pest or weed control at 31 g/ha [14]: 0%; pest or weed control at 125 g/ha ([14]; approx. 10 d): 20%; pest or weed control at 31 g/ha [15]: 0%; pest or weed control at 125 g/ha ([15]; approx. 10 d): 20%; pest or weed control at 250 g/ha [16]: 0%; pest or weed control at 250 g/ha [17]: 65%; pest or weed control at 250 g/ha [18]: 90%; pest or weed control at 250 g/ha (rice (Oryra sativa)): 10% |
| COc1ccc(C(F)(F)F)cc1[C@H]1CN(C)C(=O)[C@@H]1C(=O)Nc1cccc(F)c1F [Compound 1184] | 40 | 50 | 80 | 70 | 80 | 80 | 0 | 0 | 0 | 60 | 0 | 60 | 30 | 20 | 0 | 30 | 90 | 80 | 0 | 0 | pest or weed control at 125 g/ha [10, 19]: 100%; pest or weed control at 125 g/ha [11, 19]: 90%; pest or weed control at 125 g/ha [12, 19]: 0%; pest or weed control at 125 g/ha (Kochia (Kochia scoparia) [13]; [19]): 0%; pest or weed control at 31 g/ha [14]: 0%; pest or weed control at 125 g/ha [14, 19]: 0%; pest or weed control at 31 g/ha [15]: 40%; pest or weed control at 125 g/ha [15, 19]: 50%; pest or weed control at 250 g/ha [16]: 0%; pest or weed control at 250 g/ha [17]: 90%; pest or weed control at 250 g/ha [18]: 95%; pest or weed control at 250 g/ha (rice (Oryra sativa)): 15% |
